Structures are written as SMILES.

The target in assay [1] is T1, recombinant MDM2 protein (Homo sapiens (Human), UniProt Q00987). Particulars: competitive binding vs fluorescently labeled peptide probe, 10% DMSO, pH 7.2; read-out: Fluorescence Polarization Assay KI. The method, then: The compounds binding to MDM2 were determined by a quantitative fluorescence polarization binding assay using a recombinant MDM2 protein and fluorescently labeled peptide probes using a BioTek Cytation 5 machine. Compounds were tested in 10% DMSO, 100 mM potassium phosphate pH 7.2, 100 ug/ml bovine γ-globulin, 0.02% (w/v) sodium azide and 0.01% (v/v) triton X-100. KI values of tested compounds were determined in a dose-dependent competitive binding experiment by fitting the sigmoidal dose-dependent FP increases as a function of […] concentrations using Graphpad Prism software.
T1 sequence (Q00987 whole entry): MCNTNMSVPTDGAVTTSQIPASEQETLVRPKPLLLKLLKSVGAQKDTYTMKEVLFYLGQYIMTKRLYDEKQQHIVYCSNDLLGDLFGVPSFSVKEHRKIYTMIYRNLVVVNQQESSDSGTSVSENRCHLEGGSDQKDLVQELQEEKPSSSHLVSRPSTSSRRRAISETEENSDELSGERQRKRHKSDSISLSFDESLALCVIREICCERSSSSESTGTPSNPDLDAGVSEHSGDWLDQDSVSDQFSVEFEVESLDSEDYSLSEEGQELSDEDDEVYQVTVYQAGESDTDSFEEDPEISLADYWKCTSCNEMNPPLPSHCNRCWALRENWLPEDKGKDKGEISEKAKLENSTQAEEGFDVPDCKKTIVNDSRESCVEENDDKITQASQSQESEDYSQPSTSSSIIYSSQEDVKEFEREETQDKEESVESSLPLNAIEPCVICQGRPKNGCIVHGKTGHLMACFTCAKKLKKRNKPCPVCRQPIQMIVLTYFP
On the technique in general: In fluorescence polarisation assays a small probe gives low polarisation when free and higher when bound to something large.

The target in assay [2] is T1, recombinant MDM2 protein. Nature of the assay: biochemical. The assay is classed as binding. The method, then:
Qualitative evaluation of compound binding to MDM2 was determined using a fluorescence-based thermal shift assay with a Roche LC480 lightcycler. Each experiment was performed in ˜30 mins with ramping up of temperature to monitor thermal denaturation of MDM2. Compounds at 0.16 mM, 0.08 mM and 0.04 mM were added to recombinant MDM2 protein and SYPRO orange dye in 5% DMSO 50 mM Bis-Tris Propane pH 8.0 and 100 mM NaCl. Positive thermal shift was indicative of compound binding to the proteins of interest.

Take `CC(=O)Nc1cc(C(F)(F)F)cnc1N1CCN(CC(=O)O)CC1c1ccc(Cl)cc1` (stereo not shown) [Compound 2, 2-(4-(3-acetamido-5-(trifluoromethyl)pyridin-2-yl)-3-(4-chlorophenyl)piperazin-1-yl)acetic acid]: the inhibitory constant (Ki) at recombinant MDM2 protein [1] was 118 µM. Also, on recombinant MDM2 protein [2] (read-out: Thermal Shift 0.04 mM), the ΔTm at 40 µM was 0 °C. At recombinant MDM2 protein [2] (read-out: Thermal Shift 0.08 mM), the ΔTm at 80 µM turned out to be 0 °C. The ΔTm at 160 µM on recombinant MDM2 protein [2] (read-out: Thermal Shift 0.16 mM) amounted to 0.6 °C.

Usually Ki stands for a measure of affinity in units of concentration, obtained from inhibition or displacement.

Values taken from patent publication US11504381B1 (priority 2021, dated 2022).
